The text below walks through data of patent publication US20200369674A1, “ANTI-PAIN COMPOUND AND PREPARATION METHOD THEREOF” (LUNAN PHARMACEUTICAL GROUP CORPORATION, priority 2017, published 2020).

Common to all, as to assay type: in vivo
The subject of test [1] is ICR mice. Kind of test: Xylene-induced ear swelling test in mice (Effect Example 6). The conditions noted are these: 1 mg/kg i.g., 30 μL xylene one hour after administration; for Swelling degree: mean±SD. The protocol: (§1) ICR mice, body weight 18 g-22 g, half of them being male and the other half being female, provided by the Department of Laboratory Animals, Peking University. The animals were raised in a standard environment: temperature 23±1° C., relative humidity 55±5%, light-dark cycle 12 h/12 h, and fed with standard pellet feed.
Mice were randomly divided into 5 groups, 8 mice per group, half of them being male and the other half being female. Vehicle control group (double-distilled water, i.g.), dexamethasone control group (2 mg/kg, i.g.), compound DXL-A-22 group (1 mg/kg, i.g.), and compound DXL-A-24 group (1 mg/kg, i.g.) were set. All drugs were dissolved in double-distilled water before administration, and given by intragastric administration at 0.1 mL/10 g. One hour after administration, 30 μL of xylene was evenly smeared on the inner and outer sides of right ear of mouse to cause inflammation. After 0.5 hour, the left and right ears of mouse were cut, and circular ear pieces of the same size were punched at the same position on the left and right ears using the punch (diameter 6 mm) respectively, and weighed for the weights of the left and right ear pieces. The difference between the weight of the right ear after applying xylene and the weight of the left ear without applying xylene was used as swelling degree index (i.e., swelling degree). The swelling degree was calculated according to formula (1). The intensity of anti-inflammatory effect was expressed as inhibition rate (%), and the inhibition rate (%) was calculated according to formula (2).
Swelling degree=weight of right ear piece−weight of left ear piece (1)
Inflammation inhibition rate (%)=(ear swelling degree in vehicle control group−ear swelling degree in drug group)/ear swelling degree in vehicle control group×100% (2)

For test [2], the system named is ICR mice. In words: Xylene-induced mouse ear swelling test (Effect Example 4). The note with it: Mus musculus, po, 2 h; 1 mg/kg intragastric, 50 uL xylene two hours after administration; read-out: Inhibition rate (%). The protocol: (§2) ICR mice, 18-22 g, half of them being male and the other half being female, provided by the Department of Laboratory Animals, Peking University (License No.: SCXK (Beijing) 2016-0010).
ICR mice were randomly grouped, 8 mice per group, half of them being male and the other half being female. Vehicle control group (double-distilled water) and groups for samples to be tested (the compounds and doses thereof were shown in Table 4). All drugs were dissolved in double-distilled water immediately before administration, and given by intragastric administration at predetermined doses. Two hours after administration, 50 uL of xylene was smeared evenly on the inner and outer sides of right ear of mouse. After 30 minutes, the left and right ears of mouse were cut, and circular ear pieces of the same size were punched at the same position on the left and right ears, and weighed. The ear swelling inhibition rate of compound in mice was calculated according to the formula.
Inhibition rate %=(degree of ear swelling in vehicle control group−degree of ear swelling in test group)/degree of ear swelling in vehicle control group×100

For test [3], the system named is ICR mice. Kind of test: Hot plate test. The conditions noted are these: Mus musculus, po; 1 mg/kg intragastric, latency 2.0 hours after administration, hot plate 55° C.; read-out: PTE %. The protocol:
as §2
The temperature of hot plate was adjusted to 55° C., and the responses of mouse such as licking hind feet and jumping were used as the observation indexes. The time from the placement of mice on copper plate to the appearance of the above responses was defined as latency time. The latency time was measured for three times 30 minutes before administration, and the average value thereof was used as basic threshold, or baseline latency (BL). The animals with a latency time greater than 15 s and less than 5 s were removed, and the residual mice were randomly grouped, 8 animals per group.
Vehicle control group (double-distilled water) and groups for samples to be tested (the compounds and doses thereof were shown in Table 1) were set. All drugs were dissolved in […] before administration, and given by intragastric administration. The latency time was measured 2.0 hours after administration. Percentage of Pain Threshold Elevated Rate (PTE %) of compound on mice was calculated according to the following formula:
PTE %=(latency time of test group−latency time of vehicle control group)/latency time of vehicle control group×100

Test [4] concerns ICR mice. In words: Carrageenan-induced paw swelling in mice. The conditions noted are these: 1 mg/kg i.g.; for 0.5 h inhibition rate (%) / 0.5 h swelling degree (μL): 0.5 h after carrageenan injection; for 0.5 h swelling degree (μL) / 1 h swelling degree (μL) / 2 h swelling degree (μL): mean±SD; for 1 h inhibition rate (%) / 1 h swelling degree (μL): 1 h after carrageenan injection; for 2 h inhibition rate (%) / 2 h swelling degree (μL): 2 h after carrageenan injection. The protocol: as §1
The mouse was fixed in a special holder, and both hind feet were exposed. Before the test, a line was drawn at 0.5 cm below the ankle joint of mouse with a marker, and used as a mark for measuring plantar volume. 30 minutes before administration the volume of right hind foot was measured as basic threshold. The mice were randomly divided into 5 groups, 8 mice per group, half of them being male and the other half being female. Vehicle control group (double-distilled water, i.g.), dexamethasone control group (0.5 mg/kg, i.g.), compound DXL-A-22 group (1 mg/kg, i.g.), and DXL-A-24 group (1 mg/kg, i.g.) were set. All drugs were dissolved in double-distilled water before administration, and were administered at 0.1 mL/10 g. Immediately after intragastric administration, 20 μL of 5% carrageenan saline solution was injected subcutaneously in the right hind foot of the mice, and the plantar volumes were measured at time points of 0.5 h, 1 h and 2 h after injection. The difference between the plantar volume of right foot after injection of carrageenan and the plantar volume of right foot before injection was used as swelling degree index (i.e., swelling degree). The swelling degree was calculated according to formula (3). The intensity of anti-inflammatory effect was expressed as inhibition rate (%), and the inhibition rate (%) was calculated according to formula (4).
Swelling degree=plantar volume of right foot after injection−plantar volume of right foot before injection (3)
Inflammation inhibition rate (%)=(plantar swelling degree in vehicle control group−plantar swelling degree in drug administration group)/plantar swelling degree in vehicle control group×100% (4)
On the technique in general: Carrageenan injected into the paw causes an acute inflammation.

For test [5], the system named is ICR mice. In words: Acetic acid writhing test. Also noted: key to Inhibition rate (%): Symbol “—” indicates that the data obtained at this dose was not significantly different from the vehicle control group. The conditions noted are these: 1 mg/kg intragastric, 0.6% acetic acid ip two hours after administration. The protocol: as §2
ICR mice, half of them being male and the other half being female, were randomly grouped, 8 mice per group. Vehicle control group (double-distilled water), ibuprofen control group, and groups for samples to be tested (the compounds and doses thereof were shown in Table 2) were set. All drugs were dissolved in double-distilled water before administration, and given by intragastric administration at predetermined doses. Two hours after the administration, the mice were intraperitoneally injected with 0.6% acetic acid solution (10 ml/kg, ip), and the number of times the mice writhed (abdomen depressed, buttock raised, body elongated) was recorded within 5-20 minutes. The inhibition rate % of compound on writhing pain in mice was calculated according to the following formula.
Inhibition rate %=(number of writhing times in vehicle control group−number of writhing times in test group)/number of writhing times in vehicle control group×100
(An intraperitoneal irritant provokes the stretching counted in writhing tests.)

Turning to `Br.Brc1ccc(N2CC[N+]3(CCCC3)CC2)cc1` [DXL-A-22, 8-(4-bromophenyl)-5,8-diazaspiro[4.5]decan-5-ium bromide], in test [1], the “Inhibition rate (%)” value was determined as 42.62% and the “Swelling degree” value is 5.48 ± 0.16 mg. Moreover, the inhibition in vivo at 1 mg/kg in test [2] worked out at 47%. Further, the change in vivo at 1 mg/kg in test [3] was determined as 52.6%. Besides, in test [4], the “0.5 h inhibition rate (%)” value is reported as 50.07%, the “0.5 h swelling degree (μL)” value is 42.63 ± 16.98**/ μL, the “1 h inhibition rate (%)” value is reported as 55.56% and the “1 h swelling degree (μL)” value is 38.50 ± 11.40**/ μL. Further, in test [4], the “2 h inhibition rate (%)” value was determined as 65.36% and the “2 h swelling degree (μL)” value is given as 38.63 ± 11.67**/ μL. Also, the “Inhibition rate (%)” value in test [5] is “—”.
With `FC(F)(F)c1ccc(N2CC[N+]3(CCCC3)CC2)cc1.[Br-]` [DXL-A-24, 8-(4-(trifluoromethyl)phenyl)-5,8-diazaspiro[4.5]decan-5-ium bromide], in test [1], the “Inhibition rate (%)” value was determined as 51.41% and the “Swelling degree” value is 4.64 ± 0.11 mg. For the same compound, in test [2], the inhibition in vivo at 1 mg/kg was found to be 53.4%. Moreover, the change in vivo at 1 mg/kg in test [3] was found to be 48.6%. In test [4], the “0.5 h inhibition rate (%)” value is on record as 52.27%, the “0.5 h swelling degree (μL)” value was 40.75 ± 13.34**/ μL, the “1 h inhibition rate (%)” value was 57.72% and the “1 h swelling degree (μL)” value is reported as 36.63 ± 16.12**/ μL. Further, in test [4], the “2 h inhibition rate (%)” value is given as 67.49% and the “2 h swelling degree (μL)” value is reported as 36.25 ± 9.60**/ μL. Also, the “Inhibition rate (%)” value in test [5] is “—”.
